Peptide text beside a SMILES is read from it.

Data set [1] deals with A549 lung adenocarcinoma cell line. Nature of the data set: Cell viability assay (MTT). The data set is classed as cell-based, human. The note with it: Table S2; MTT, 24 h; mean ± sd; N = 2 independent measurements with six technical replicates each (Figs S6-S8); read-out: A549 EC50 /µM. The procedure, abridged:
(§1)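 Viability by MTT: 10^4 cells/well exposed 24 h to 2-fold peptide dilutions from 100 μM in DMEM, then 1 h with 0.5 mg mL−1 MTT; absorbance at 540 nm relative to peptide-free medium as 100% survival. EC50 from a 3-parameter log-logistic fit.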

Data set [2] deals with MCF7 breast adenocarcinoma cell line. In words: Cell viability assay (MTT). The note with it: Table S2, 24 h, mean ± sd, N = 2 independent measurements with six technical replicates each (Figs S6-S8). The format is cell-based, human. The procedure, abridged:
as §1

Data set [3] has as its system noncancer HDMEC primary cells (human dermal microvascular endothelial cells). Nature of the data set: Cell viability assay (MTT). The format is cell-based. As to conditions: Table S2; noncancer primary cells; MTT, 24 h; mean ± sd; N = 2 independent measurements with six technical replicates each (Figs S6-S8). An outline of the steps: as §1
For another data set, the system named is human erythrocytes. In words: Hemolysis assay. As to conditions: red cells of human, 1 h. The format is cell-based. An outline of the steps:
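Washed human erythrocytes (5% v/v in PBS) were mixed with peptide plated as a 200–6.25 μM series, in triplicate, for 1 h at 37 °C. Released haemoglobin in the supernatant was read at 540 nm, scaled to 0.1% Triton X-100 (100%) and PBS (0%). HC50 came from a 3-parameter log-logistic fit.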

For `CC[C@H](C)[C@H](NC(=O)[C@H](CCCNC(=N)N)NC(=O)[C@H](Cc1ccccc1)NC(=O)[C@H](CC(C)C)NC(=O)[C@H](CCCCN)NC(=O)[C@H](CCCCN)NC(=O)[C@H](Cc1c[nH]c2ccccc12)NC(=O)[C@H](Cc1ccc(O)cc1)NC(=O)[C@@H](NC(=O)[C@H](CCCCN)NC(=O)[C@@H](NC(=O)[C@H](CCCCN)NC(=O)[C@H](CCCCN)NC(=O)[C@H](Cc1ccccc1)NC(=O)[C@@H](NC(=O)[C@@H](N)Cc1c[nH]cn1)[C@@H](C)CC)C(C)C)[C@@H](C)O)C(=O)N[C@@H](CC(C)C)C(=O)NCC(=O)N[C@@H](CCCNC(=N)N)C(=O)N[C@@H](Cc1ccccc1)C(N)=O` [Off6] (H-HIFKKVKTYWKKLFRILGRF-NH2), the EC50 in data set [1] was determined as 18 ± 2 µM; in data set [2], 12 ± 3 µM; in data set [3] it was 5 ± 0.7 µM. Moreover, the “Eryhtr. HC50 /µM” value in the data set on human erythrocytes came out at 16 ± 2 µM.

Regarding `CC[C@H](C)[C@H](NC(=O)[C@H](CC(C)C)NC(=O)[C@@H](N)CCCNC(=N)N)C(=O)N[C@@H](CCCCN)C(=O)N[C@@H](CCCNC(=N)N)C(=O)N[C@@H](CC(C)C)C(=O)N[C@@H](CCCCN)C(=O)N[C@H](C(=O)N[C@@H](Cc1ccccc1)C(=O)N[C@H](C(=O)N[C@@H](CCCNC(=N)N)C(=O)N[C@@H](CCCCN)C(=O)N[C@H](C(=O)N[C@@H](Cc1c[nH]c2ccccc12)C(=O)N[C@@H](CCCCN)C(=O)N[C@@H](Cc1c[nH]c2ccccc12)C(=O)N[C@H](C(=O)NCC(=O)N[C@@H](Cc1c[nH]cn1)C(=O)N[C@@H](Cc1ccccc1)C(N)=O)C(C)C)[C@@H](C)O)C(C)C)[C@@H](C)O` [Off7] (H-RLIKRLKTFVRKTWKWVGHF-NH2), the EC50 came out at 52 ± 2 µM in data set [1], 39 ± 3 µM in data set [2] and 12 ± 3 µM in data set [3]. In addition, the “Eryhtr. HC50 /µM” value in the data set with human erythrocytes was found to be 95 ± 7 µM.

Take `CC(C)C[C@H](NC(=O)[C@H](CCCNC(=N)N)NC(=O)CNC(=O)[C@H](CC(C)C)NC(=O)[C@@H](NC(=O)[C@H](CCCCN)NC(=O)[C@H](Cc1c[nH]c2ccccc12)NC(=O)[C@H](Cc1ccc(O)cc1)NC(=O)[C@H](CCCNC(=N)N)NC(=O)[C@H](CCCCN)NC(=O)[C@H](Cc1ccc(O)cc1)NC(=O)[C@@H](NC(=O)[C@@H](NC(=O)[C@H](CCCCN)NC(=O)[C@H](Cc1ccccc1)NC(=O)[C@H](Cc1c[nH]cn1)NC(=O)[C@H](CCCCN)NC(=O)[C@H](CC(C)C)NC(=O)[C@H](Cc1ccccc1)NC(=O)[C@@H](N)CCCNC(=N)N)[C@@H](C)O)C(C)C)C(C)C)C(N)=O` [Off8] (H-RFLKHFKTVYKRYWKVLGRL-NH2): the values for the EC50 in data set [1], in data set [2] and in data set [3] were 17 ± 4 µM, 11.9 ± 0.1 µM and 14.3 ± 0.2 µM, respectively. In addition, the “Eryhtr. HC50 /µM” value in the data set on human erythrocytes was determined as 144 ± 4 µM.

As to `CC[C@H](C)[C@H](NC(=O)[C@H](CC(C)C)NC(=O)[C@@H](N)CCCCN)C(=O)N[C@@H](Cc1c[nH]cn1)C(=O)N[C@@H](CCCNC(=N)N)C(=O)N[C@@H](CC(C)C)C(=O)N[C@@H](CCCCN)C(=O)N[C@H](C(=O)N[C@H](C(=O)N[C@@H](Cc1ccccc1)C(=O)N[C@@H](CCCCN)C(=O)N[C@@H](CCCCN)C(=O)N[C@H](C(=O)N[C@@H](Cc1c[nH]c2ccccc12)C(=O)N[C@@H](Cc1c[nH]cn1)C(=O)N[C@@H](Cc1ccccc1)C(=O)N[C@@H](CC(C)C)C(=O)NCC(=O)N[C@@H](Cc1c[nH]cn1)C(=O)N[C@@H](CC(C)C)C(N)=O)C(C)C)C(C)C)[C@@H](C)O` [Off9] (H-KLIHRLKTVFKKVWHFLGHL-NH2), the EC50 in data set [1] stood at 22 ± 4 µM; in data set [2], 18.9 ± 0.2 µM; in data set [3], 22 ± 3 µM. Further, in the data set with human erythrocytes, the “Eryhtr. HC50 /µM” value is listed as 41 ± 3 µM.

`CC[C@H](C)[C@H](NC(=O)[C@H](CCCCN)NC(=O)[C@@H]1CCCN1C(=O)[C@H](Cc1c[nH]c2ccccc12)NC(=O)[C@@H](NC(=O)[C@H](CCC(=O)O)NC(=O)[C@H](Cc1c[nH]c2ccccc12)NC(=O)[C@H](Cc1ccccc1)NC(=O)[C@H](CCCCN)NC(=O)[C@H](CCCCN)NC(=O)[C@@H](NC(=O)[C@@H](NC(=O)[C@@H](NC(=O)[C@H](CCCCN)NC(=O)[C@H](CC(C)C)NC(=O)[C@H](CCC(N)=O)NC(=O)[C@H](CCCNC(=N)N)NC(=O)[C@@H](NC(=O)[C@H](CCCNC(=N)N)NC(=O)[C@@H](N)Cc1c[nH]cn1)[C@@H](C)CC)[C@@H](C)O)[C@@H](C)O)[C@@H](C)CC)[C@@H](C)CC)C(N)=O` [Off10] (H-HRIRQLKTTIKKFWEIWPKI-NH2): the EC50 in data set [1] is 83 ± 11 µM; in data set [2], 56 ± 5 µM; in data set [3] it was 58.1 ± 0.3 µM. Moreover, the “Eryhtr. HC50 /µM” value in the data set on human erythrocytes is greater than 200 µM.

The values above are taken from article PMC6677754, “In silico design and optimization of selective membranolytic anticancer peptides” (Scientific Reports, 2019).
